Reference: patent publication US5095137A, “Amides of cyclomethylen-1,2-bicarboxylic acids having therapeutical activity” (Laboratori Guidotti SpA, priority 1988, dated 1992)

Experiments:
ACE = molecular target: T1, ACE (Rattus norvegicus, UniProt P47820); test: ACE inhibition: hydrolysis of the ippuril-glycil-glycine artificial substrate by the ACE contained in rat serum; format: biochemical
T1 construct: by the ACE contained in the rat serum; from tissue; host or cells: rat serum
T1 sequence (P47820 36-1238 limits assumed): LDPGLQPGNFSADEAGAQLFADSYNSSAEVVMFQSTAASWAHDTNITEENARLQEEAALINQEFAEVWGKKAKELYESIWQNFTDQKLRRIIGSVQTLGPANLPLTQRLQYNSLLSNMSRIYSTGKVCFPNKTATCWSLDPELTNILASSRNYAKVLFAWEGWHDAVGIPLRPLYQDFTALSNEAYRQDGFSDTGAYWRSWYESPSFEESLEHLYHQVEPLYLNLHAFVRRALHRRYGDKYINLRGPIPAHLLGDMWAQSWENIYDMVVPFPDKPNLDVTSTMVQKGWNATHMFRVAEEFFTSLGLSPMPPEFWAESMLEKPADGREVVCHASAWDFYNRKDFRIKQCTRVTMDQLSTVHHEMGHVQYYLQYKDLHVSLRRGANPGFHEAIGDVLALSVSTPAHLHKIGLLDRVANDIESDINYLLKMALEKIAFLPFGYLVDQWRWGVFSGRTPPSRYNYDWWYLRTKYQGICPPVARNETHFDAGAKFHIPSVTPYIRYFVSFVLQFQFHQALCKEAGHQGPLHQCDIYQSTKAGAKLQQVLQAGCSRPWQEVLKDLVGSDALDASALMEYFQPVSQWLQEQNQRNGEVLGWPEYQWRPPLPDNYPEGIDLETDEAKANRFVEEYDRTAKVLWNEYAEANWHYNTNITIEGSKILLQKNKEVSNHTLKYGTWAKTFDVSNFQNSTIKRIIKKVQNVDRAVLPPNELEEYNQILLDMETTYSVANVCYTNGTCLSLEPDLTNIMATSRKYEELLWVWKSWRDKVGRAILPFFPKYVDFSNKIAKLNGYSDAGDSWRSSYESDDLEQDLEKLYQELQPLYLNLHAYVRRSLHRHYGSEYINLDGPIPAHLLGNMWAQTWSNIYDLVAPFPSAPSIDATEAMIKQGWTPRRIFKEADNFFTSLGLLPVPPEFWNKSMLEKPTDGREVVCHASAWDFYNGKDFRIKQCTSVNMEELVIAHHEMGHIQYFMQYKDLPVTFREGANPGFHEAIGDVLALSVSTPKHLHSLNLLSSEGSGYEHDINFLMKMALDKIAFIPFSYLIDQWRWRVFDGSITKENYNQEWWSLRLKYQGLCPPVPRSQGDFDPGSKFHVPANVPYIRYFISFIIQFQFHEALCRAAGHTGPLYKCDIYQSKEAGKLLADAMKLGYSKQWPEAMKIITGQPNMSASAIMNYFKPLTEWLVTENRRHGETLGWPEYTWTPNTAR
Text: The IC50 values have been calculated by the regression analysis of the linear part of the log dose/percent inhibition curve.

[1] = tested on: blood pressure increases induced by angiotensin I; test: Antihypertensive activity i.v. in the anaesthetized ganglion-blocked rat (inhibition of blood pressure increases induced by repeated i.v. injections of angiotensin I); format: in vivo
Procedure: Dose-dependent antihypertensive activity of selected compounds was calculated after intravenous administration to the anaesthetized ganglion-blocked rat. […] Half-lives (t1/2) of the antihypertensive action were also calculated and reported.

[2] = tested on: pressure answer to angiotensin II; test: Influence on the pressure answer to angiotensin II; format: in vivo; conditions: up to the dose of 1 mg kg i.v.

Compound | IC50 (ACE) [nM] | other results
O=C(CNC(=O)[C@H]1CCCC[C@H]1C(=O)O)NO (relative stereo) [Example 1] | 1600 | 
CCN(CC(=O)NO)C(=O)[C@@H]1CCCC[C@H]1C(=O)O (relative stereo) [Example 2, Trans-2[[N-[2-(hydroxyamino)-2-oxoethyl]-N-ethylamino]carbonyl]- -cyclohexanecarboxylic acid] | 8 | Antihypertensive activity t1/2 (half-life of the antihypertensive action) [1]: 14 min
CN(CC(=O)NO)C(=O)[C@H]1CCCC[C@H]1C(=O)O (relative stereo) [Example 4, cis-2[[N-[2-(hydroxyamino)-2-oxoethyl]-N-methylamino]carbonyl]-cyclohexanecarboxylic acid] | 6 | influence on the pressure answer to angiotensin II [2]: has not influenced; Antihypertensive activity t1/2 (half-life of the antihypertensive action) [1]: 15 min
CN(CC(=O)NO)C(=O)[C@@H]1CCC[C@H]1C(=O)O (relative stereo) [Example 6, Trans-2[[N-[2-(hydroxyamino)-2-oxoethyl]-N-methylamino]carbonyl]cyclopentanecarboxylic acid] | 730 | 
CC(=O)ON(C(C)=O)C(=O)CN(C)C(=O)[C@H]1CCCC[C@H]1C(=O)O (relative stereo) [Example 14, Cis-2-[[N-[2-(N'-acetoxy-N'-acetylamino)-2-oxoethyl]-N-methyl-amino]carbonyl]cyclohexanecarboxylic acid] | 280 | ED50 ([1]; iv, 1 min, angiotensin I-induced pressure increase, at time of maximum effect (1 min)): 1.5 mg/kg
O=C(NO)C(Cc1ccccc1)NC(=O)[C@H]1CCCC[C@H]1C(=O)O (relative stereo) [Example 18, Cis-2[[N-[1-benzyl-2-(hydroxyamino)-2-oxoethyl]amino]carbonyl]-cyclohexane carboxylic acid] | 400 | 
O=C(NO)C(CCc1ccccc1)NC(=O)[C@H]1CCCC[C@H]1C(=O)O (relative stereo) [Example 19, Cis-2[[N-[1-(2-phenylethyl)-2-(hydroxyamino)-2-oxoethyl]amino]carbonyl]cyclohexanecarboxylic acid] | 28000 | 
O=C(NO)C(CCCc1ccccc1)NC(=O)[C@H]1CCCC[C@H]1C(=O)O (relative stereo) [Example 20, Cis-2[[N-[1-(3-phenylpropyl)-2-(hydroxyamino)-2-oxoethyl]amino]carbonyl]-cyclohexanecarboxylic acid] | 10000 | 
CN(CC(=O)NO)C(=O)[C@@H]1CCCC[C@H]1C(=O)O (relative stereo) [Example 21, Trans-2-[[N-[2-(hydroxyamino)-2-oxoethyl]-N-methylamino]carbonyl]-cyclohexanecarboxylic acid] | 20 | Antihypertensive activity t1/2 (half-life of the antihypertensive action) [1]: 15 min
CCN(CC(=O)NO)C(=O)[C@H]1CCCC[C@H]1C(=O)O (relative stereo) [Example 26, Cis-2[[N-[2-(hydroxyamino)-2-oxoethyl]-N-ethylamino]carbonyl]cyclohexane-carboxylic acid] | 25 | 
CN(C(=O)[C@H]1CCCC[C@H]1C(=O)O)C(Cc1ccccc1)C(=O)NO (relative stereo) [Example 29, Cis-2[[N-[1-benzyl-2-(hydroxyamino)-2-oxoethyl]-N-methylamino]carbonyl]-cyclohexanecarboxylic acid] | 30 | 
CN(C(=O)[C@@H]1CCCC[C@H]1C(=O)O)C(Cc1ccccc1)C(=O)NO (relative stereo) [Example 30, Trans-2[[N-[1-benzyl-2-(hydroxyamino)-2-oxoethyl]-N-methylamino]carbonyl]-cyclohexanecarboxylic acid] | 30 | 
CN(C(=O)[C@H]1CCCC[C@H]1C(=O)O)C(CCCc1ccccc1)C(=O)NO (relative stereo) [Example 32, Cis-2[[N-[1-(3-phenylpropyl)-2-(hydroxyamino)-2-oxoethyl]-N-methylamino]carbonyl]-cyclohexanecarboxylic acid] | 135 | 
O=C(NO)C(CNC(=O)[C@H]1CCCC[C@H]1C(=O)O)Cc1ccccc1 (stereo partly shown) [Example 3] | 3500 | 
CCN(CC(=O)NO)C(=O)[C@@H]1CCCC[C@H]1C(=O)O [Example 7, trans-(1R,2R)-2[[N-[2-(hydroxyamino)-2-oxoethyl]N-ethylamino]carbonyl]-cyclohexanecarboxylic acid] | 7.6 | 
CN(C(=O)[C@H]1CCCC[C@H]1C(=O)O)C(CCc1ccccc1)C(=O)NO (stereo partly drawn) [Example 8, Cis-2[[N-[1-(2-phenylethyl)-2-(hydrxyamino)-2-oxoethyl]-N-methylamino]carbonyl]-cyclohexanecarboxylic acid] | 62 | 
CN(CC(=O)NO)C(=O)[C@@H]1CCCC[C@@H]1C(=O)O [Example 9, Cis-(1S,2R)-2[[N-[2-(hydroxyamino)-2-oxoethyl]-N-methylamino]carbonyl]-cyclohexanecarboxylic acid] | 3.5 | 
